Experimental data taken from US20200061062A1, “INHIBITORS OF HUMAN PHOSPHATIDYLINOSITOL 3-KINASE DELTA” (ICOS Corporation, priority 2000, published 2020).

How the values were obtained:
PI3Kδ [1] = target: T1, PI3Kδ (Homo sapiens, UniProt O00329, S253N); assay: Biochemical assay of PI3K potency and selectivity using 20 μM ATP, Delta; parameters: His tag (pFastbac HTb vector) (N); FLAG; made in house; host or cells: Sf21 insect cells (baculovirus); conditions: 20 μM ATP; read-out: Delta IC50
Summary of the method: (§1)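 Lipid-kinase radiometric assay with γ-[32P]ATP (20 μM ATP) on PIP2/PS liposomes in 20 mM HEPES pH 7.4; the 3× substrate mix held […] and 6 μM liposomes.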

[2] = tested on: Murine splenocytes (Balb/c); assay: B cell proliferation in response to cell surface IgM stimulation; format: cell-based; conditions: Mus musculus, Splenocyte; stimulated B cell proliferation; read-out: Mouse BCR Stim (EC50)
Description: In the above experiment, the B cells were stimulated using PANSORBIN®. The effect of D-000 on B cell proliferation response when they were stimulated through their cell surface IgM using anti-IgM antibody also was measured. Murine splenocytes (Balb/c) were plated into 96-well microtiter plates at 2×10^5 cells per well in 10% FBS/RPMI. Appropriate dilutions of test inhibitor in complete medium were added to the cells and the plates were incubated for 30-60 minutes prior to the addition of stimulus. Following the preincubation with test inhibitor an F(ab′)2 preparation of goat antibody specific for the μ-chain of mouse IgM was added to the wells at a final concentration of 25 μg/mL. The plates were incubated at 37° C. for 3 days and 1 μCi of [^3H]-thymidine was added to each well for the final four hours of culture. The plates were harvested onto fiber filters washed and the incorporation of radiolabel was determined using a beta counter (Matrix 96, Packard Instrument Co., Downers Grove, Ill.) and expressed as counts per minute (CPM).
(§2) Using the methods described in Examples 3-5, above, compounds of the invention were tested for inhibitory activity and potency in assays of stimulated B and T cell proliferation, neutrophil (PMN) migration, and neutrophil (PMN) elastase release. In Table 4, the values shown are effective concentrations of the compound (EC50; μM). Where no value is given, no assay was performed.

T cell proliferation = assay: Stimulated T cell proliferation (Mouse TCE Stim, Table 4); format: cell-based; conditions: stimulated T cell proliferation, read-out: Mouse TCE Stim (EC50)
PI3Kβ [3] = target: T2, PI3Kβ (Homo sapiens, UniProt P42338); assay: Biochemical assay of PI3K potency and selectivity using 20 μM ATP, Beta; conditions: 20 μM ATP; for Beta/Delta Ratio: ratio of IC50 values, > = hypothetical ratio with 100 μM substituted for the missing IC50; for remaining activity at 100 µM: read-out: Beta: percent activity remaining at 100 μM, 100 μM compound did not inhibit by at least 50%; for IC50: read-out: Beta IC50
T2 construct: His tag (pFastbac HTa vector) (N); FLAG (N); made in house; host or cells: Sf21 insect cells (baculovirus)
T2 sequence (P42338 whole entry): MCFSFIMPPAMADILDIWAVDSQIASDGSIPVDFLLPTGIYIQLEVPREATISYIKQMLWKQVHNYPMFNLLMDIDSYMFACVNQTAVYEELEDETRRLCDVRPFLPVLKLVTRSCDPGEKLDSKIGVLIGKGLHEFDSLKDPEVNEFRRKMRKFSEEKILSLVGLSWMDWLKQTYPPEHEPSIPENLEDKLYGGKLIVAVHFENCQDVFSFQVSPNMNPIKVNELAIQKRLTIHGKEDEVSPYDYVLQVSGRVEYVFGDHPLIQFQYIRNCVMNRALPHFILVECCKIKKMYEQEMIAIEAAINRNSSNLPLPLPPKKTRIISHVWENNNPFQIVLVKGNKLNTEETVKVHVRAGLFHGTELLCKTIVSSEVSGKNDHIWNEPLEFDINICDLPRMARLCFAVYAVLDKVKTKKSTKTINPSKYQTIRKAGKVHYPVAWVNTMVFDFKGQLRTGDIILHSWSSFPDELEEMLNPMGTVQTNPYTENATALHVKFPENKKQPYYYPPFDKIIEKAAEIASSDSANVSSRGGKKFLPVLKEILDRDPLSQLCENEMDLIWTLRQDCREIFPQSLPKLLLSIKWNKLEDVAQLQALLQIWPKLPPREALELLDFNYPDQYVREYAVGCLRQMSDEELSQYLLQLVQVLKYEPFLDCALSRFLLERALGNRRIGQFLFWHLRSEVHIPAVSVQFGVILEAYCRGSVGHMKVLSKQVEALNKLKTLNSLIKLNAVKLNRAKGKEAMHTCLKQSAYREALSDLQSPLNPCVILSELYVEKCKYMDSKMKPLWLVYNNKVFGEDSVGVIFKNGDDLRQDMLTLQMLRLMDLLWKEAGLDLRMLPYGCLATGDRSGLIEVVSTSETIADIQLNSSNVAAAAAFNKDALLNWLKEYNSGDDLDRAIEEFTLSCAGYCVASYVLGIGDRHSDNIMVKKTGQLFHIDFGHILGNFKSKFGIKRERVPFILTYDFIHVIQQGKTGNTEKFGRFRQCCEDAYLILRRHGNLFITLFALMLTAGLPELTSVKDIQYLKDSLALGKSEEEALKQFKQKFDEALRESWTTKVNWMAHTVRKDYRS
T2 sequence (P27986 whole entry partner): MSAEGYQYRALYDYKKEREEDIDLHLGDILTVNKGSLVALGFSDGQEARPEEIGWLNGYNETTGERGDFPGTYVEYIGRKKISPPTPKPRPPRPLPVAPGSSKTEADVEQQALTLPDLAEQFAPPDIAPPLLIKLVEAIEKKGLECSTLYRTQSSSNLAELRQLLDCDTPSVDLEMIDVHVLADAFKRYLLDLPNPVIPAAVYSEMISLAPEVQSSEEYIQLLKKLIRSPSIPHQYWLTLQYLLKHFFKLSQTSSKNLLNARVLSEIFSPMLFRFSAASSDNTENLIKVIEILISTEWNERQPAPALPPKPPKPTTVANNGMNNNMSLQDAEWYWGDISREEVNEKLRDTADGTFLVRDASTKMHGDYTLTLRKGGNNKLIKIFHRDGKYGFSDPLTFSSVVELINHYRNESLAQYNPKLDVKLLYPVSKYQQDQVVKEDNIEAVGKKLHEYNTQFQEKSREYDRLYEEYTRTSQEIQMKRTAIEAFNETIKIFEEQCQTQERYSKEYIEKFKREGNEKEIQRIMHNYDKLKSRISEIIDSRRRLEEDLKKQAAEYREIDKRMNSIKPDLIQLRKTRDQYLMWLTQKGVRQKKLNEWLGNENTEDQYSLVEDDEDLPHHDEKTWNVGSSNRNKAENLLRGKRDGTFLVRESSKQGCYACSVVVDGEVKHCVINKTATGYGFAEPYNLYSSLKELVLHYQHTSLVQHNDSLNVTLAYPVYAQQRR
Summary of the method: as §1

PI3Kα [4] = target: T3, PI3Kα (Homo sapiens, UniProt P42336); assay: Biochemical assay of PI3K potency and selectivity using 20 μM ATP, Alpha; conditions: for Alpha/Delta Ratio / IC50: 20 μM ATP; for Alpha/Delta Ratio: ratio of IC50 values, > = hypothetical ratio with 100 μM substituted for the missing IC50; for IC50: read-out: Alpha IC50; for remaining activity at 100 µM: read-out: percent activity remaining at 100 μM, 20 μM ATP, 100 μM compound did not inhibit by at least 50%
T3 construct: His tag (pFastbac HTb vector) (N); FLAG; made in house; host or cells: Sf21 insect cells (baculovirus)
T3 sequence (P42336 whole entry): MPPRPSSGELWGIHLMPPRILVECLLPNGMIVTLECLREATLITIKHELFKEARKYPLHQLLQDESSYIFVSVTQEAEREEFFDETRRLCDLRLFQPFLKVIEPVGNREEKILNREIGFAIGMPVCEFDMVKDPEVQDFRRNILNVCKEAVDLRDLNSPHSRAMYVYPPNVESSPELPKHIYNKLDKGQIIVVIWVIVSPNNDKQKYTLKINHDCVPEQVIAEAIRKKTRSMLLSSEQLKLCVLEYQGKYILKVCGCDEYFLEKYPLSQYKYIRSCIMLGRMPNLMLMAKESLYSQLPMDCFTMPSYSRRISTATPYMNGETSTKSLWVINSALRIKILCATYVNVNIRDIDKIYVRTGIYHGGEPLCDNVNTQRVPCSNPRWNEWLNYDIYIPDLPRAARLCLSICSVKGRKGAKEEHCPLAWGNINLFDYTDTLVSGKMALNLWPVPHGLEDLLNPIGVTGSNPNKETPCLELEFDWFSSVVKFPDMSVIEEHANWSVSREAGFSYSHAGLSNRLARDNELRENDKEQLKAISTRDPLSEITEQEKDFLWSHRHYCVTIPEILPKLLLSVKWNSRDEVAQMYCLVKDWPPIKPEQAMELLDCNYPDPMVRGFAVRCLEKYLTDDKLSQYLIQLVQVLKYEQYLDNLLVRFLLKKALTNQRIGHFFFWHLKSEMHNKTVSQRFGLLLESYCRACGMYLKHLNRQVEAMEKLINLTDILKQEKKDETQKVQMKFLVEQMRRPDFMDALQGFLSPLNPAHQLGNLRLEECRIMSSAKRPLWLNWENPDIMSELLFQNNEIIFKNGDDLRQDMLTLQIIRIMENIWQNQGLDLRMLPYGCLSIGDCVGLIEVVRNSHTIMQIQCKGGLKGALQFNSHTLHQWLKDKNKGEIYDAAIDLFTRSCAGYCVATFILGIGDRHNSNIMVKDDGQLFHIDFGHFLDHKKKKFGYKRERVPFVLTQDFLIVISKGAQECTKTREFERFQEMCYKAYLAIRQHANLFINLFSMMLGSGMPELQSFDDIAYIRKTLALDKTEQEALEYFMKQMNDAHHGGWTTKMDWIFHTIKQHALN
T3 sequence (P27986 whole entry partner): as the sequence (P27986 whole entry partner) above
Summary of the method: as §1

PI3Kβ [5] = target: T2, PI3Kβ; assay: Biochemical assay using 200 μM ATP, Beta
Description: (§3) PI3Kδ catalyzes a phosphotransfer from γ-[^32P]ATP to PIP2/PS liposomes at the D3′ position of the PIP2 lipid inositol ring. This reaction is MgCl2 dependent and is quenched in high molarity potassium phosphate buffer pH 8.0 containing 30 mM EDTA. […] The reaction products (and all unlabelled products) are transferred to a 96-well, prewetted PVDF filter plate, filtered, and washed in high molarity potassium phosphate. Scintillant is added to the dried wells and the incorporated radioactivity is quantitated.
(§4) This dilution established a final concentration of 200 μM ATP in the reaction volume. The reaction was stopped with 150 μL quench buffer (1.0 M potassium phosphate pH 8.0, 30 mM EDTA). A portion of the quenched solution (180 μL) was then transferred to a PVDF filter plate (Millipore # MAIP NOB prewetted with sequential 200 μL washes of 100% methanol, water, and finally 1.0 M potassium phosphate pH 8.0 wash buffer).
(§5) The PVDF filter plate was aspirated under moderate vacuum (2-5 mm Hg), washed with 5×200 μL of wash buffer, and then dried by aspiration. The filter was subsequently blotted, allowed to air dry completely, and inserted into a Wallac counting cassette with 50 μL of Ecoscint scintillation cocktail added per well.
(§6) Subsequent selectivity assays were done similarly using the same 3× substrate stocks except they contained 0.05 mCi/mL γ[^32P]ATP and 3 mM PIP2. Subsequent selectivity assays also used the same 3× enzyme stocks, except they now contained 3 nM of any given PI3K isoform.
(§7) For all selectivity assays, the test compounds were weighed out and dissolved into 10-50 mM stocks in 100% DMSO (depending on their respective solubilities) and stored at −20° C. […] From these dilutions, 20 μL was added into the assay wells alongside water blanks used for the enzyme (positive) control and the no enzyme (background) control.
(§8) This selectivity protocol is identical to that described above, except the 3× stock ATP concentration was 600 μM.

PI3Kγ = target: T4, PI3Kγ (Homo sapiens, UniProt P48736); assay: Biochemical assay using 200 μM ATP, Gamma
T4 construct: His tag (pFastbac HTb vector) (N); FLAG (N); made in house; host or cells: Sf21 insect cells (baculovirus)
T4 sequence (P48736 whole entry): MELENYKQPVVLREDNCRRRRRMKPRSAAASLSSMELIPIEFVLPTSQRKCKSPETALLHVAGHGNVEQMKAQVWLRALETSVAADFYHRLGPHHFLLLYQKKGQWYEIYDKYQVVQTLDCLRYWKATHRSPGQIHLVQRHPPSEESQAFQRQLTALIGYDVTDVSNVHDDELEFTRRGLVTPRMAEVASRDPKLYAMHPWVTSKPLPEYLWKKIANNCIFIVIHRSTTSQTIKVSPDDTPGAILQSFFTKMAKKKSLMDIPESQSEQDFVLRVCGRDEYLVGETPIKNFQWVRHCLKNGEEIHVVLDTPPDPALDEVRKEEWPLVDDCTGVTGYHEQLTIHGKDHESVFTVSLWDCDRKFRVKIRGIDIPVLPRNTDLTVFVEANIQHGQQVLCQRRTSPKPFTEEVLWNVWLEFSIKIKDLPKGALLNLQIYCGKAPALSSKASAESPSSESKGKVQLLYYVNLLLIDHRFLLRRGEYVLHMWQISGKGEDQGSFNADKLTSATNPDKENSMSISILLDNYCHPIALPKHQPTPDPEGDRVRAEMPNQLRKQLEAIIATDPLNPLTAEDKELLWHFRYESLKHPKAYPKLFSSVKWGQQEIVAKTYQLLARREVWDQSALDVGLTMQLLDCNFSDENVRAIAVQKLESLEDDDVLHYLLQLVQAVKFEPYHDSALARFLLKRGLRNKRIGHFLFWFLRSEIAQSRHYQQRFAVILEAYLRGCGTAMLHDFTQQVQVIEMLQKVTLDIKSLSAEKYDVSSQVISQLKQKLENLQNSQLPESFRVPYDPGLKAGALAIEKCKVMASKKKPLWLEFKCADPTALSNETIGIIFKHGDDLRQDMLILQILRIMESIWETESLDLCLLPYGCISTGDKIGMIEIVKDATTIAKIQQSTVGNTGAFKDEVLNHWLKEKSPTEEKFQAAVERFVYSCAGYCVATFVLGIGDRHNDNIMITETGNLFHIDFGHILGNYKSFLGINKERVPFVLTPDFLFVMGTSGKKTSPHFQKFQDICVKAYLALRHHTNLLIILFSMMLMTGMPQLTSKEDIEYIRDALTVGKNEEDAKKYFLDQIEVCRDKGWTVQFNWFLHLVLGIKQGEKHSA

PI3Kα [6] = target: T3, PI3Kα; assay: Biochemical assay using 200 μM ATP, Alpha
Description: as §3, §4, §5, §6, §7, §8

PI3Kδ [7] = target: T1, PI3Kδ; assay: Biochemical assay using 200 μM ATP, Delta;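 note: radiometric filter-binding assay: PI3Kδ transfers ³²P from γ-[³²P]ATP onto PIP2/PS liposomes, counted by scintillation, enzyme-only wells as positive control, no-enzyme wells as background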
Description: as §3, §4, §5, §6, §7, §8

human neutrophils = assay: Elastase exocytosis from neutrophils (fMLP-induced); format: cell-based; conditions: neutrophil (PMN) elastase release
Description: Aliquots (8 mL) of heparinized blood from healthy volunteers were layered on 3 mL cushions of 7.3% FICOLL® (Sigma, St. Louis, Mo.) and 15.4% HYPAQUE® (Sigma) and centrifuged at 900 rpm for 30 min at room temperature in a table top centrifuge (Beckman). The neutrophil-rich band just above the FICOLL®-HYPAQUE® cushion was collected and washed with Hanks' balanced salt solution (HBSS) containing 0.1% gelatin. Residual erythrocytes were removed by hypotonic lysis with 0.2% NaCl. The neutrophil preparation was washed twice with HBSS containing 0.1% gelatin and used immediately.
In addition to superoxide generation, activated neutrophils also respond by releasing several proteases that are responsible for the destruction of tissues and cartilage during inflammation. As an indication of protease release, the effect of D-000 on elastase exocytosis was measured. Elastase exocytosis was quantitated by modification of the procedure described by Ossanna et al. (J Clin Invest, 77:1939-1951 (1986)), as follows. Purified human neutrophils (0.2×10^6) (treated with either DMSO or a serial dilution of D-000 in DMSO) were stimulated with fMLP in PBS containing 0.01 mg/mL cytochalasin B, 1.0 μM sodium azide (NaN3), 5 μg/mL L-methionine and 1 μM fMLP for 90 min at 37° C. in a 96-well plate. At the end of the incubation period, the plate was centrifuged for 5 min at 1000 rpm, and 90 μL of the supernatant was transferred to 10 μL of 10 mM solution of an elastase substrate peptide, MeO-suc-Ala-Ala-Pro-Val-pNA, wherein MeO-suc=methoxy-succinyl; pNA=p-nitroanilide (Calbiochem, San Diego, Calif.). Absorbance at 410 nm was monitored for 2 hr in a 96-well plate reader. To measure the relative amounts of elastase excytosed, all absorbance values were normalized to the values without any inhibitor. […] Inhibition was half-maximal at a concentration of about 2-3 μM D-000.
as §2

T1 sequence (O00329 whole entry S253N): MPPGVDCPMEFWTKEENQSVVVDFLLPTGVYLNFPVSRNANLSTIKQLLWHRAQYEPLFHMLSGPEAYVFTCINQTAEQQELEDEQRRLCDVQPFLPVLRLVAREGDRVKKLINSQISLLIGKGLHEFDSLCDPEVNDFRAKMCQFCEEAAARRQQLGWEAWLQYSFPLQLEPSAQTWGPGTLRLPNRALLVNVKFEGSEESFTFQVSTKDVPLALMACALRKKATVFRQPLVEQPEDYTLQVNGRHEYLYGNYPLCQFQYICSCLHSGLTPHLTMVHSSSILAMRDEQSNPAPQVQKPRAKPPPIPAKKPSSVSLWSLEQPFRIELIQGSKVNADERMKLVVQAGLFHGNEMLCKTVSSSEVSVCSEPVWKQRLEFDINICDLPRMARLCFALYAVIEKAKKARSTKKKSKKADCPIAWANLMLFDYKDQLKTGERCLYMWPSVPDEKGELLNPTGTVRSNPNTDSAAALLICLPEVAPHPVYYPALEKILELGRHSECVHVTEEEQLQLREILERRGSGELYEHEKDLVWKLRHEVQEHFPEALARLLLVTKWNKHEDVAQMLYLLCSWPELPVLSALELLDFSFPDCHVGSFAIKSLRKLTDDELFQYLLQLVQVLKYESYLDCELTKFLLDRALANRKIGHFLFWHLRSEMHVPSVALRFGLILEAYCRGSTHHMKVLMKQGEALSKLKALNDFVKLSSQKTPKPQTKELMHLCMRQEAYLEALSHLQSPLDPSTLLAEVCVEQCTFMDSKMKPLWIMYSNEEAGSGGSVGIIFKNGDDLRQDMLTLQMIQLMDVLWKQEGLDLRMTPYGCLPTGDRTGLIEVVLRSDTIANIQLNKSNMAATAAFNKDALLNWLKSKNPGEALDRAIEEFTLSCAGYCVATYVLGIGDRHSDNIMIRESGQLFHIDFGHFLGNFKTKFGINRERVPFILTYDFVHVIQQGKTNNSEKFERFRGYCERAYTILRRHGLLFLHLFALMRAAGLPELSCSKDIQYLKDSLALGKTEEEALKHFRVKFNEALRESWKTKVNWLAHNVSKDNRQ
T1 sequence (P27986 whole entry partner): as the sequence (P27986 whole entry partner) above

Compound	IC50 (PI3Kδ [1]) [µM]	EC50 [2] [µM]	EC50 (T cell proliferation) [µM]	Beta/Delta Ratio (PI3Kβ [3])	remaining activity at 100 µM (PI3Kβ [3]) [%]	melting point	Alpha/Delta Ratio (PI3Kα [4])	IC50 (PI3Kα [4]) [µM]	Beta/Delta Ratio (PI3Kβ [5])	Gamma/Delta Ratio (PI3Kγ)	Alpha/Delta Ratio (PI3Kα [6])	IC50 (PI3Kβ [3]) [µM]	IC50 (PI3Kδ [7]) [µM]	EC50 (human neutrophils) [µM]	remaining activity at 100 µM (PI3Kα [4]) [%]	IC50 (PI3Kβ [5]) [µM]	IC50 (PI3Kγ) [µM]	IC50 (PI3Kα [6]) [µM]
Nc1ncnc2c1ncn2Cc1nc2cc(F)ccc2c(=O)n1-c1ccccc1Cl [Compound D-003, 2-(6-Aminopurin-o-ylmethyl)-3-(2-chlorophenyl)-7-fluoro-3N-quinazolin-4-one]	4	3.9	5.7	>24	53	216.8 to 217.2 °C	22	92	–	–	–	–	–	–	–	–	–	–
Nc1ncnc2c1ncn2Cc1nc2cccc(F)c2c(=O)n1-c1ccccc1Cl [Compound D-005, 2-(6-Aminopurin-9-ylmethyl)-3-(2-chlorophenyl)-5-fluoro-3H-quinazolin-4-one]	0.8	0.7 ± 0.1	3.9	56	–	159 to 172 °C (dec.)	>121	–	16	17	20	46	11	4.3 ± 1	89	–	–	–
Nc1ncnc2c1ncn2Cc1nc2cccc(Cl)c2c(=O)n1-c1ccccc1Cl [Compound D-006, 2-(6-Aminopurin-o-ylmethyl)-5-chloro-3-(2-chlorophenyl)-3H-quinazolin-4-one]	0.15	0.2 ± 0.1	5.3	38	–	245.7 to 246 °C	>652	–	48	95	226	6	0.92 ± 0.1	0.3 ± 0.1	78	44 ± 5	87 ± 33	–
Cc1cccc2nc(Cn3cnc4c(N)ncnc43)n(-c3ccccc3Cl)c(=O)c12 [Compound D-007, 2-(6-Aminopurin-9-ylmethyl)-3-(2-chlorophenyl)-5-methyl-3H-quinazolin-4-one]	0.16	0.3 ± 0.1	4.2	188	–	190.7 to 190.9 °C	>619	–	99	121	252	30	0.73 ± 0.2	0.4	82	72 ± 12	88 ± 4	–
O=c1c2cc3ccccc3cc2nc(CSc2ncnc3[nH]cnc23)n1-c1ccccc1Cl [Compound D-019, 3-(2-Chlorophenyl)-2-(9H-purin-6-ylsulfanylmethyl)-3H-benzo[g]quinazolin-4-one]	7	0.9 ± 0.01	0.9	15	–	247.8 to 254.4 °C (dec.)	10	67	3	1	7	105	30	–	–	100	33	–
O=c1c2cccc(Cl)c2nc(CSc2ncnc3[nH]cnc23)n1-c1ccccc1Cl [Compound D-021, 8-Chloro-3-(2-chlorophenyl)-2-(9H-purin-6-ylsulfanylmethyl)-3H-quinazolin-4-one]	1.6	1.8	3.5	68	–	211.9 to 212.7 °C	62	100	–	–	–	110	–	–	–	–	–	–
Cc1cccc2nc(CSc3ncnc4[nH]cnc34)n(-c3ccccc3C(C)C)c(=O)c12 [Compound D-035, 3-(2-isopropylphenyl)-5-methyl-2-(9H-purin-6-ylsulfanylmethyl)-3H-quinazolin-4-one]	0.05	0.2 ± 0.1	2.9 ± 0.7	65	–	–	199	9	69	14	193	3	0.49 ± 0.1	0.3 ± 0.1	–	34 ± 6	6.8 ± 1	95 ± 6
O=c1c2c(F)cccc2nc(CSc2ncnc3[nH]cnc23)n1Cc1ccccc1 [Compound D-043, 3-benzyl-5-fluoro-2-(9H-purin-6-ylsulfanylmethyl)-3H-quinazolin-4-one]	2.1	1.4	2.6	>47	77	–	>47	–	–	–	–	–	–	–	83	–	–	–
Cc1cccc2nc(Cn3cnc4c(N)ncnc43)n(-c3ccccc3F)c(=O)c12 [Compound D-048, 2-(6-aminopurin-9-ylmethyl)-3-(2-fluorophenyl)-5-methyl-3H-quinazolin-4-one]	0.16	0.4 ± 0.2	5	90	–	–	449	70	70	91	67	14	1.4 ± 0.9	0.9 ± 0.2	–	95 ± 7	123 ± 40	90 ± 57
Nc1ncnc2c1ncn2Cc1nc2cccc(F)c2c(=O)n1Cc1ccccc1 [Compound D-049, 2-(6-aminopurin-9-ylmethyl)-3-benzyl-5-fluoro-3H-quinazolin-4-one]	1	2	6.3	30	–	–	>100	–	–	–	–	30	–	5	110	–	–	–
